Laboratory results from ChEMBL document CHEMBL4765389, “Antimicrobial and anti-inflammatory activities of short dodecapeptides derived from duck cathelicidin: Plausible mechanism of bactericidal action and endotoxin neutralization” (Eur J Med Chem, 2020).
Calls of active or inactive are those of the source. No cut-off for these calls is given here.

Key:
[1] = tested on: RAW264.7; test: Antiinflammatory activity against mouse RAW264.7 cells assessed as reduction in LPS-induced TNFalpha mRNA expression at 10 uM incubated for 3 hrs by qRT-PCR analysis; assay type: functional, cell-based
[2] = tested on: Staphylococcus aureus; test: Antibacterial activity against methicillin-resistant Staphylococcus aureus CCARM 3090 assessed as fractional inhibitory concentration incubated for 24 hrs in presence of chloramphenicol by CLSI based broth dilution method; assay type: functional
[3] = Antibacterial activity against multidrug-resistant Pseudomonas aeruginosa CCARM 2095 assessed as fractional inhibitory concentration index incubated for 24 hrs in presence of ciprofloxacin by CLSI based broth dilution method; assay type: functional
[4] = tested on: Escherichia coli; test: Antibacterial activity against Escherichia coli KCTC 1682 assessed as reduction in bacterial growth incubated for 24 hrs in presence of 150 mM NaCl by CLSI based broth dilution method; assay type: functional; conditions: read-out: MIC100
[5] = tested on: Escherichia coli; test: Antibacterial activity against Escherichia coli KCTC 1682 assessed as reduction in bacterial growth incubated for 24 hrs in presence of 4.5 mM KCl by CLSI based broth dilution method; assay type: functional; conditions: read-out: MIC100
[6] = tested on: Escherichia coli; test: Antibacterial activity against Escherichia coli KCTC 1682 assessed as reduction in bacterial growth incubated for 24 hrs in presence of 4 uM FeCl3 by CLSI based broth dilution method; assay type: functional; conditions: read-out: MIC100
[7] = tested on: Lipopolysaccharide (LPS); test: Displacement of BODIPY-TR cadaverine from Escherichia coli O111:B4 LPS at 10 uM measured for 100 sec by spectrofluorometry relative to control
[8] = tested on: Cell membrane; test: Induction of cell membrane permeability in Staphylococcus aureus KCTC 1621 assessed as cytoplasmic membrane depolarization at 2 times MIC by DiSC3-5 dye based spectrofluorometry; assay type: subcellular
[9] = tested on: Staphylococcus aureus; test: Antibacterial activity against Staphylococcus aureus KCTC 1621 assessed as reduction in bacterial growth incubated for 24 hrs in presence of 6 uM NH4Cl by CLSI based broth dilution method; assay type: functional; conditions: read-out: MIC100
[10] = tested on: Cell membrane; test: Induction of cell membrane permeability in Escherichia coli KCTC 1682 assessed as […] at 2 times MIC by ONPG dye based spectrophotometry; assay type: subcellular
[11] = tested on: Escherichia coli; test: Antibacterial activity against Escherichia coli KCTC 1682 assessed as reduction in bacterial growth incubated for 24 hrs in presence of 6 uM NH4Cl by CLSI based broth dilution method; assay type: functional; conditions: read-out: MIC100
[12] = tested on: RAW264.7; test: Antiinflammatory activity in mouse RAW264.7 cells assessed as neutralization of LPS binding by measuring LPS-FITC aggregation at 10 uM pretreated with LPS for 1 hr followed by compound addition and measured after 1 hr by flowcytometry analysis (reference value: 48.12 %); assay type: functional
[13] = tested on: RAW264.7; test: Antiinflammatory activity against mouse RAW264.7 cells assessed as reduction in LPS-induced iNOS mRNA expression at 5 uM incubated for 6 hrs by qRT-PCR analysis; assay type: functional, cell-based
[14] = tested on: Staphylococcus aureus; test: Antibacterial activity against Staphylococcus aureus KCTC 1621 assessed as reduction in bacterial growth incubated for 24 hrs in presence of 4.5 mM KCl by CLSI based broth dilution method; assay type: functional; conditions: read-out: MIC100
[15] = tested on: Cell membrane; test: Induction of cell membrane permeability in Staphylococcus aureus KCTC 1621 assessed as cytoplasmic membrane depolarization at 2 times MIC by SYTOX dye based fluorescence assay; assay type: subcellular
[16] = Antibacterial activity against multidrug-resistant Pseudomonas aeruginosa CCARM 2095 assessed as reduction in bacterial growth incubated for 24 hrs in presence of ciprofloxacin by CLSI based broth dilution method; assay type: functional; conditions: read-out: MIC100
[17] = tested on: Staphylococcus aureus; test: Antibacterial activity against methicillin-resistant Staphylococcus aureus CCARM 3090 assessed as fractional inhibitory concentration index incubated for 24 hrs in presence of oxacillin by CLSI based broth dilution method; assay type: functional
[18] = tested on: Staphylococcus aureus; test: Antibacterial activity against methicillin-resistant Staphylococcus aureus CCARM 3090 assessed as reduction in bacterial growth incubated for 24 hrs in presence of ciprofloxacin by CLSI based broth dilution method; assay type: functional; conditions: read-out: MIC100
[19] = tested on: Staphylococcus aureus; test: Antibacterial activity against Staphylococcus aureus KCTC 1621 assessed as reduction in bacterial growth incubated for 24 hrs in presence of 1 mM MgCl2 by CLSI based broth dilution method; assay type: functional; conditions: read-out: MIC100
[20] = tested on: Staphylococcus aureus; test: Antibacterial activity against methicillin-resistant Staphylococcus aureus CCARM 3090 assessed as fractional inhibitory concentration index incubated for 24 hrs in presence of ciprofloxacin by CLSI based broth dilution method; assay type: functional
[21] = tested on: Lipopolysaccharide (LPS); test: Inhibition of Escherichia coli O111:B4 LPS aggregation assessed as increase in FITC-LPS dissociation by spectrofluorometry
[22] = tested on: Escherichia coli; test: Antibacterial activity against Escherichia coli KCTC 1682 assessed as reduction in bacterial growth incubated for 24 hrs in presence of 2.5 mM CaCl2 by CLSI based broth dilution method; assay type: functional; conditions: read-out: MIC100
[23] = tested on: Cell membrane; test: Induction of cell membrane permeability in Escherichia coli KCTC 1682 assessed as cytoplasmic membrane […] fluorescent signals at 2 times MIC measured after 1 hr by propidium iodide dye based flow cytometry analysis (reference value: 9.8 %); assay type: subcellular
[24] = Antibacterial activity against multidrug-resistant Pseudomonas aeruginosa CCARM 2095 assessed as fractional inhibitory concentration incubated for 24 hrs in presence of oxacillin by CLSI based broth dilution method; assay type: functional
[25] = tested on: Staphylococcus aureus; test: Antibacterial activity against methicillin-resistant Staphylococcus aureus CCARM 3090 assessed as reduction in bacterial growth incubated for 24 hrs in presence of chloramphenicol by CLSI based broth dilution method; assay type: functional; conditions: read-out: MIC100
[26] = tested on: Staphylococcus aureus; test: Antibacterial activity against Staphylococcus aureus KCTC 1621 assessed as reduction in bacterial growth incubated for 24 hrs in presence of 2.5 mM CaCl2 by CLSI based broth dilution method; assay type: functional; conditions: read-out: MIC100
[27] = tested on: Escherichia coli; test: Antibacterial activity against Escherichia coli KCTC 1682 assessed as reduction in bacterial growth incubated for 24 hrs in presence of 20 % serum by CLSI based broth dilution method; assay type: functional; conditions: read-out: MIC100
[28] = tested on: RAW264.7; test: Antiinflammatory activity in mouse RAW264.7 cells assessed as suppression of LPS binding by measuring LPS-FITC aggregation at 10 uM pretreated with LPS for 1 hr followed by compound addition and measured after 30 mins by flowcytometry analysis (reference value: 67.93 %); assay type: functional; conditions: 0.5 h
[29] = Antibacterial activity against multidrug-resistant Pseudomonas aeruginosa CCARM 2095 assessed as reduction in bacterial growth incubated for 24 hrs in presence of oxacillin by CLSI based broth dilution method; assay type: functional; conditions: read-out: MIC100
[30] = tested on: Staphylococcus aureus; test: Antibacterial activity against methicillin-resistant Staphylococcus aureus CCARM 3090 assessed as fractional inhibitory concentration incubated for 24 hrs in presence of ciprofloxacin by CLSI based broth dilution method; assay type: functional
[31] = tested on: Escherichia coli; test: Antibacterial activity against Escherichia coli KCTC 1682 assessed as reduction in bacterial growth incubated for 24 hrs in presence of 1 mM MgCl2 by CLSI based broth dilution method; assay type: functional; conditions: read-out: MIC100
[32] = Antibacterial activity against multidrug-resistant Pseudomonas aeruginosa CCARM 2095 assessed as reduction in bacterial growth incubated for 24 hrs in presence of chloramphenicol by CLSI based broth dilution method; assay type: functional; conditions: read-out: MIC100
[33] = Antibacterial activity against multidrug-resistant Pseudomonas aeruginosa CCARM 2095 assessed as fractional inhibitory concentration index incubated for 24 hrs in presence of oxacillin by CLSI based broth dilution method; assay type: functional
[34] = tested on: Staphylococcus aureus; test: Antibacterial activity against Staphylococcus aureus KCTC 1621 assessed as reduction in bacterial growth incubated for 24 hrs in presence of 20 % serum by CLSI based broth dilution method; assay type: functional; conditions: read-out: MIC100
[35] = Antibacterial activity against multidrug-resistant Pseudomonas aeruginosa CCARM 2095 assessed as fractional inhibitory concentration index incubated for 24 hrs in presence of chloramphenicol by CLSI based broth dilution method; assay type: functional
[36] = tested on: Staphylococcus aureus; test: Antibacterial activity against methicillin-resistant Staphylococcus aureus CCARM 3090 assessed as fractional inhibitory concentration incubated for 24 hrs in presence of oxacillin by CLSI based broth dilution method; assay type: functional
[37] = tested on: Staphylococcus aureus; test: Antibacterial activity against methicillin-resistant Staphylococcus aureus CCARM 3090 assessed as reduction in bacterial growth incubated for 24 hrs in presence of oxacillin by CLSI based broth dilution method; assay type: functional; conditions: read-out: MIC100
[38] = Antibacterial activity against multidrug-resistant Pseudomonas aeruginosa CCARM 2095 assessed as fractional inhibitory concentration incubated for 24 hrs in presence of ciprofloxacin by CLSI based broth dilution method; assay type: functional
[39] = tested on: Staphylococcus aureus; test: Antibacterial activity against Staphylococcus aureus KCTC 1621 assessed as reduction in bacterial growth incubated for 24 hrs in presence of 150 mM NaCl by CLSI based broth dilution method; assay type: functional; conditions: read-out: MIC100
[40] = tested on: Staphylococcus aureus; test: Antibacterial activity against Staphylococcus aureus KCTC 1621 assessed as reduction in bacterial growth incubated for 24 hrs in presence of 4 uM FeCl3 by CLSI based broth dilution method; assay type: functional; conditions: read-out: MIC100
[41] = tested on: Staphylococcus aureus; test: Antibacterial activity against methicillin-resistant Staphylococcus aureus CCARM 3090 assessed as fractional inhibitory concentration index incubated for 24 hrs in presence of chloramphenicol by CLSI based broth dilution method; assay type: functional
[42] = Antibacterial activity against multidrug-resistant Pseudomonas aeruginosa CCARM 2095 assessed as fractional inhibitory concentration incubated for 24 hrs in presence of chloramphenicol by CLSI based broth dilution method; assay type: functional

For `CC[C@H](C)[C@H](NC(=O)[C@H](CCCCN)NC(=O)[C@H](CCC(=O)O)NC(=O)[C@H](CCCCN)NC(=O)[C@H](CO)NC(=O)[C@H](CCCCN)NC(=O)[C@H](CCCNC(=N)N)NC(=O)[C@H](Cc1ccccc1)NC(=O)[C@H](Cc1ccccc1)NC(=O)[C@H](CC(=O)O)NC(=O)CNC(=O)[C@H](CC(C)C)NC(=O)[C@@H](N)CC(C)C)C(=O)NCC(=O)N[C@@H](CCCCN)C(=O)N[C@@H](CCC(=O)O)C(=O)N[C@@H](Cc1ccccc1)C(=O)N[C@@H](CCCCN)C(=O)N[C@@H](CCCNC(=N)N)C(=O)N[C@H](C(=O)N[C@H](C(=O)N[C@@H](CCC(N)=O)C(=O)N[C@@H](CCCNC(=N)N)C(=O)N[C@H](C(=O)N[C@@H](CCCCN)C(=O)N[C@@H](CC(=O)O)C(=O)N[C@@H](Cc1ccccc1)C(=O)N[C@@H](CC(C)C)C(=O)N[C@@H](CCCNC(=N)N)C(=O)N[C@@H](CC(N)=O)C(=O)N[C@@H](CC(C)C)C(=O)N[C@H](C(=O)N1CCC[C@H]1C(=O)N[C@@H](CCCNC(=N)N)C(=O)N[C@H](C(=O)N[C@@H](CCC(=O)O)C(=O)N[C@@H](CO)C(=O)O)[C@@H](C)O)C(C)C)[C@@H](C)CC)C(C)C)[C@@H](C)CC` [CATHELICIDIN], the inhibition [1] was “Active”, the FIC [2] was 0.5 and the “fractional inhibitory concentration index (FICI)” value [3] was 1.25. It also gave an MIC [4] of 16 µM, an MIC [5] of 8 µM and an MIC [6] of 16 µM. For the same compound, the Activity [7] was 68%, the Activity [8] was “Active” and the MIC [9] was 8 µM. The Activity [10] was “Active”, the MIC [11] was 8 µM and the Activity [12] was 13.98%. The inhibition [13] was “Active”, the MIC [14] was 8 µM and the Activity [15] was “Active”. For the same compound, the MIC [16] was 128 µM, the “fractional inhibitory concentration index (FICI)” value [17] was 0.75 and the MIC [18] was 256 µM. The MIC [19] was 8 µM, the “fractional inhibitory concentration index (FICI)” value [20] was 1 and the inhibition [21] was “Dose-dependent effect”. It also gave an MIC [22] of 16 µM, an Activity [23] of 70.1% and an FIC [24] of 0.25. For the same compound, the MIC [25] was 64 µM, the MIC [26] was 16 µM and the MIC [27] was 8 µM. For the same compound, the Activity [28] was 25.44%, the MIC [29] was 128 µM and the FIC [30] was 0.5. For the same compound, the MIC [31] was 16 µM, the MIC [32] was 512 µM and the “fractional inhibitory concentration index (FICI)” value [33] was 0.75. For the same compound, the MIC [34] was 8 µM, the “fractional inhibitory concentration index (FICI)” value [35] was 1 and the FIC [36] was 0.25. For the same compound, the MIC [37] was 128 µM, the FIC [38] was 0.25 and the MIC [39] was 16 µM. The MIC [40] was 16 µM, the “fractional inhibitory concentration index (FICI)” value [41] was 0.75 and the FIC [42] was 0.5.
